In patent US4049660A, “N-substituted derivatives of 4 (N-piperazinylmethyl) spiro dibenzocycloheptadi- (or tri-) ene-5, 2-dioxolane (1,3) their method of preparation and their application in therapeutics” (Delalande S.A., priority 1971, dated 1977):
Read-outs that look alike come from different tables or passages of the source.

How the values were obtained:
[1] = system: ptosis caused by reserpine; assay: Anti-depressive: antagonism against ptosis caused by intravenous reserpine; format: in vivo; conditions: for ED50: po, read-out: Antagonism against ptosis caused by reserpine (DE50)
Method: (§1) In this regard, the compounds of formula I differ unexpectedly from the compounds of U.S. Pat. No. 3,726,900, as shown by comparative testing.
(§2) The anti-depressive properties of additional analog compounds were tested by the same tests. In these tests, the comparison compounds had the formula [drawing 28] The specific compounds tested and the test results are indicated in Table XIII.

[2] = Acute toxicity / mortality, oral, mice; format: in vivo; conditions: mouse, in vivo; for LD50: oral; for mortality: read-out: Percentage of mortality with mice
Description: As is shown by the preceding results and by those given in Table XIV below, the difference between pharmacologically active doses and lethal doses is sufficiently great to allow the use of compounds of formula (I) in therapeutics.

[3] = system: lethal effect of yohimbine; assay: Anti-depressive: potentialization of lethal effect of yohimbine; format: in vivo
Method: as §1, §2

[4] = system: ventricular fibrillations caused by inhaling chloroform; assay: Antiarythmic: ventricular fibrillations caused by inhaling chloroform in mouse; format: in vivo; conditions: ip, intraperitoneal, read-out: Antagonism to fibrillations caused by chloroform with a mouse, DE50
Description: Administered intraperitoneally, the compounds of formula (I) are able to protect the mouse against ventricular fibrillations caused by inhaling chloroform.

[5] = system: isolated fundus of rats (serotonine); assay: Antiserotonine: contractions of the isolated fundus of rats provoked by serotonine; conditions: in vitro
Description: (§3) For purposes of comparison, compounds of the formula (I) were compared, as to their antiserotonine properties, with a respresentative sampling of compounds disclosed in U.S. Pat. No. 3,726,900. The comparison compounds tested have the formula [drawing 23]

[6] = system: painful stretchings following intraperitoneal injection of acetic acid; assay: Analgesic: painful stretchings following intraperitoneal acetic acid in mouse; format: in vivo; conditions: 100 mg/kg/PO, read-out: Percentage reduction in the number of painful stretchings
Description: The compounds of formula (I) administered orally to a mouse are capable of reducing the number of painful stretchings following the intraperitoneal injection of acetic acid.

[7] = system: isolated duodenum of a rat (barium chloride); assay: Spasmolytic: contraction by barium chloride of isolated duodenum of a rat; conditions: for Spasmolytic activity: relative to papaverine as the standard
Method: Compounds of formula I, introduced in the survival medium, are capable of opposing the contacting action of barium chloride on the isolated duodenum of a rat. This activity is determined either by taking papaverine as the standard or by calculating the DE50 of the compound tested.

[8] = system: bronchoconstrictions provoked by serotonine; assay: Antiserotonine: bronchoconstrictions provoked by intravenous serotonine in guinea pigs (Konzett and Rossler test); format: in vivo; conditions: Cavia porcellus, serotonine bronchoconstriction, read-out: Test of Konzett and Rossler DE50
Description: as §3

[9] = system: cough caused by stimulation of the upper laryngeal nerve; assay: Anti-cough: cough caused by stimulation of the upper laryngeal nerve in an anaesthetized cat; format: in vivo
[10] = system: arterial pressure; assay: Hypotensive: arterial pressure of anaesthetized rat; format: in vivo
Description: Administered intravenously to an anaesthetized rat, the compounds of formula (I) cause a lowering of arterial pressure.

[11] = system: isolated tied uterus (serotonine); assay: Antiserotonine: contractions of the isolated tied uterus provoked by serotonine; conditions: in vitro
Description: as §3

[12] = system: urinary elimination; assay: Diuretic: volume of urine in mouse; format: in vivo; conditions: 4 hours, versus controls, read-out: Percentage increase in urinary elimination
Method: The compounds of formula (I) administered orally to a mouse simultaneously with a volume of 1 ml of sodium chloride isotonic solute per 25 g of body weight are able to cause an increase of the volume of urine given compared with controls, this volume being measured for the 4 hours following administration.

[13] = system: isolated ileum of a guinea pig (histamine); assay: Antihistamine: contraction by histamine of isolated ileum of a guinea pig
Method: The compounds of formula (I) introduced in the survival medium are able to oppose the contracting action of histamine on the isolated ileum of a guinea pig. This activity is calculated by the DE50 of the tested compounds.

[14] = mice, Table XI, read-out: LD50 (mice)
[15] = at 100 mg/kg/PO, result in words
[16] = at 50 mg/kg/PO, result in words

CCNCC1COC2(O1)c1ccccc1CCc1ccccc12 (stereo not drawn) [R = C2 H5 (--Z-- = --CH2 --CH2 --), reference compound]
ED50 ([1]; Table XIII): ~50 mg/kg
LD50 ([2]; Table XIII, read-out: LD50): 550 mg/kg

CCNCC1COC2(O1)c1ccccc1C=Cc1ccccc12 (stereo not drawn) [R = C2 H5 (--Z-- = --CH = CH--), reference compound]
Potentialization of lethal effect of yohimbine ([3]; at 50 mg/kg/PO, Table XIII): 60%
ED50 ([1]; Table XIII): 70 mg/kg
LD50 ([2]; Table XIII, read-out: LD50): 375 mg/kg

CC(C)NCC1COC2(O1)c1ccccc1C=Cc1ccccc12 (stereo not drawn) [R = C3 H7 (i) (--Z-- = --CH = CH--), reference compound]
Antagonism against ptosis caused by reserpine ([1]; at 50 mg/kg/PO, Table XIII): 20%
LD50 ([2]; Table XIII, read-out: LD50): 550 mg/kg

CCC(C)NCC1COC2(O1)c1ccccc1CCc1ccccc12 (stereo not drawn) [R = C4 H9 (s) (--Z-- = --CH2 --CH2 --), reference compound]
Potentialization of lethal effect of yohimbine ([3]; at 50 mg/kg/PO, Table XIII): ~40%
ED50 ([1]; Table XIII): 45 mg/kg
LD50 ([2]; Table XIII, read-out: LD50): 900 mg/kg

CNCC1COC2(O1)c1ccccc1CCc1ccccc12 (stereo not drawn) [R = CH3 (--Z-- = --CH2 --CH2 --), reference compound]
ED50 ([1]; Table XIII): 60 mg/kg
LD50 ([2]; Table XIII, read-out: LD50): 850 mg/kg

CNCC1COC2(O1)c1ccccc1C=Cc1ccccc12 (stereo not drawn) [R = CH3 (--Z-- = --CH = CH--), reference compound]
ED50 ([1]; Table XIII): 25 mg/kg
LD50 ([2]; Table XIII, read-out: LD50): 750 mg/kg

CCCN(CCC)C(=O)CN1CCN(CC2COC3(O2)c2ccccc2C=Cc2ccccc23)CC1 (stereo not drawn) [compound 7204, -4'-[N'-(di-n-propylaminocarbonylmethyl) N-piperazinylmethyl] spiro [dibenzo(a,d)cycloheptatriene-5:2' dioxolane (1',3')] dimaleate]
ED50 [4]: 100 mg/kg
Antagonisms against contractions of fundus of rat, DE50 [5]: 0.07 µg/mL
inhibition in vivo at 100 mg/kg [6]: 70%
DE50 (spasmolytic) [7]: 2.50 µg/mL
mortality ([2]; 1900 mg/kg/PO): ~50%
LD50 [2, 14]: 1900 mg/kg

C1=Cc2ccccc2C2(OCC(CN3CCCC3)O2)c2ccccc21 (stereo not drawn) [compound 70301, reference compound]
ED50 [8]: 0.4 mg/kg
LD50 [2, 14]: 425 mg/kg

C1=Cc2ccccc2C2(OCC(CN3CCCCC3)O2)c2ccccc21 (stereo not drawn) [compound 70315, reference compound]
ED50 [8]: 1.4 mg/kg
Antagonism against ptosis caused by reserpine ([1]; at 75 mg/kg/PO): 45%
LD50 [2, 14]: 700 mg/kg

O=C(CN1CCN(CC2COC3(O2)c2ccccc2CCc2ccccc23)CC1)N1CCCC1 (stereo not drawn) [compound 70339]
Antagonisms against contractions of fundus of rat, DE50 [5]: 0.67 µg/mL
Reduction of cough, duration ([9]; 1 mg/kg/IV): 20 mm
Reduction of cough, intensity ([9]; 1 mg/kg/IV): 100%
inhibition in vivo at 100 mg/kg [6]: 75%
Reduction of arterial pressure, duration ([10]; 1 mg/kg/IV): > 30 mm
Reduction of arterial pressure, intensity ([10]; 1 mg/kg/IV): 80%
ED50 [8]: 0.1 mg/kg
Potentialization of lethal effect of yohimbine [3, 15]: Inactive
Antagonism against ptosis caused by reserpine ([1]; at 100 mg/kg/PO): Inactive
Antagonisms against contractions of tied uterus, DE50 [11]: 0.002 µg/mL
Spasmolytic activity [7]: 1 × papaverine
mortality ([2]; 1200 mg/kg/PO): ~50%
LD50 [2, 14]: 1200 mg/kg

CC(C)NC(=O)CN1CCN(CC2COC3(O2)c2ccccc2CCc2ccccc23)CC1 (stereo not drawn) [compound 70347]
Reduction of cough, duration ([9]; 1 mg/kg/IV): 20 mm
Reduction of cough, intensity ([9]; 1 mg/kg/IV): 80%
inhibition in vivo at 100 mg/kg [6]: 70%
Reduction of arterial pressure, duration ([10]; 2 mg/kg/IV): > 30 mm
Reduction of arterial pressure, intensity ([10]; 2 mg/kg/IV): 50%
ED50 [8]: 0.5 mg/kg
Potentialization of lethal effect of yohimbine [3, 15]: Inactive
Antagonism against ptosis caused by reserpine ([1]; at 100 mg/kg/PO): Inactive
Antagonisms against contractions of tied uterus, DE50 [11]: 0.02 µg/mL
Spasmolytic activity [7]: 1.5 × papaverine
mortality ([2]; 1200 mg/kg/PO): ~50%
LD50 [2, 14]: 1200 mg/kg

O=C(CN1CCN(CC2COC3(O2)c2ccccc2CCc2ccccc23)CC1)N1CCOCC1 (stereo not drawn) [compound 70357]
Antagonisms against contractions of fundus of rat, DE50 [5]: 0.54 µg/mL
Reduction of cough, duration ([9]; 2 mg/kg/IV): 20 mm
Reduction of cough, intensity ([9]; 2 mg/kg/IV): 100%
ED50 [8]: 0.005 mg/kg
Potentialization of lethal effect of yohimbine [3, 15]: Inactive
Antagonism against ptosis caused by reserpine ([1]; at 100 mg/kg/PO): Inactive
Antagonisms against contractions of tied uterus, DE50 [11]: 0.005 µg/mL
Spasmolytic activity [7]: 1.5 × papaverine
mortality ([2]; 1300 mg/kg/PO): ~50%
LD50 [2, 14]: 1300 mg/kg

CCOC(=O)CN1CCN(CC2COC3(O2)c2ccccc2CCc2ccccc23)CC1 (stereo not drawn) [compound 70365]
inhibition in vivo at 100 mg/kg [6]: 75%
ED50 [8]: 0.6 mg/kg
Potentialization of lethal effect of yohimbine [3, 15]: Inactive
Antagonism against ptosis caused by reserpine ([1]; at 100 mg/kg/PO): Inactive
Spasmolytic activity [7]: 3 × papaverine
mortality ([2]; 1250 mg/kg/PO): ~50%
LD50 [2, 14]: 1250 mg/kg

c1ccc(C(c2ccccc2)N2CCN(CC3COC4(O3)c3ccccc3CCc3ccccc34)CC2)cc1 (stereo not drawn) [compound 70374]
Reduction of arterial pressure, duration ([10]; 2 mg/kg/IV): 20 mm
Reduction of arterial pressure, intensity ([10]; 2 mg/kg/IV): 35%
Potentialization of lethal effect of yohimbine [3, 15]: Inactive
Antagonism against ptosis caused by reserpine ([1]; at 100 mg/kg/PO): Inactive
mortality ([2]; 2000 mg/kg/PO): 0%
LD50 ([2]; Table XII, read-out: LD50): > 2000 mg/kg

OCC(O)CN1CCN(CC2COC3(O2)c2ccccc2CCc2ccccc23)CC1 (stereo not drawn) [compound 70405, 4'-N'-(2",3"-dihydroxy "-propyl)N-piperazinyl methyl spiro dibenzo (a,d) cycloheptadiene-5:2' dioxolane (1',3') dimaleate]
Reduction of cough, duration ([9]; 100 mg/kg/ID): 60 mm
Reduction of cough, intensity ([9]; 100 mg/kg/ID): 100%
Reduction of arterial pressure, duration ([10]; 2 mg/kg/IV): > 60 mm
Reduction of arterial pressure, intensity ([10]; 2 mg/kg/IV): 40%
mortality ([2]; 1600 mg/kg/PO): ~50%

CC(C)NC(=O)CN1CCN(CC2COC3(O2)c2ccccc2C=Cc2ccccc23)CC1 (stereo not drawn) [compound 72134]
ED50 [4]: 65 mg/kg
change in vivo at 50 mg/kg ([12]; 50 mg/kg/PO): 55%
Antihistamine activity DE50 [13]: 1 µg/mL
Antagonism against ptosis caused by reserpine [1, 16]: Inactive
mortality ([2]; 1200 mg/kg/PO): ~50%
LD50 [2, 14]: 1200 mg/kg

O=C(CN1CCN(CC2COC3(O2)c2ccccc2C=Cc2ccccc23)CC1)N1CCCCCC1 (stereo not drawn) [compound 72176]
ED50 [4]: 100 mg/kg
Antihistamine activity DE50 [13]: 0.5 µg/mL
DE50 (spasmolytic) [7]: 3.50 µg/mL
mortality ([2]; 3400 mg/kg/PO): ~50%

CNC(=O)CN1CCN(CC2COC3(O2)c2ccccc2C=Cc2ccccc23)CC1 (stereo not drawn) [compound 72188]
ED50 [4]: 38 mg/kg
change in vivo at 25 mg/kg ([12]; 25 mg/kg/PO): 40%
inhibition in vivo at 100 mg/kg [6]: 60%
ED50 [8]: 0.25 mg/kg
Antihistamine activity DE50 [13]: 1 µg/mL
Antagonism against ptosis caused by reserpine [1, 16]: Inactive
mortality ([2]; 1100 mg/kg/PO): ~50%
LD50 [2, 14]: 1100 mg/kg
